Test results published in ChEMBL document CHEMBL6127065, “Design and Synthesis of c-Met and HDAC Dual Inhibitors for the Treatment of Breast Cancer” (ACS Med Chem Lett, 2024).

Key:
[1] = test system: MDA-MB-468; experiment: Antiproliferative activity against human MDA-MB-468 cells assessed as reduction in cell growth incubated for 72 hrs by MTT assay; conditions: MDA-MB-468, 72 h
[2] = test system: MDA-MB-453; experiment: Antiproliferative activity against human MDA-MB-453 cells assessed as reduction in cell growth incubated for 72 hrs by MTT assay; conditions: MDA-MB-453, 72 h
[3] = test system: MDA-MB-231; experiment: Antiproliferative activity against human MDA-MB-231 cells assessed as reduction in cell growth incubated for 72 hrs by MTT assay; conditions: MDA-MB-231, 72 h
[4] = test system: MDA-MB-231; experiment: Induction of apoptosis in human MDA-MB-231 cells assessed as early apoptotic cells at […] uM incubated for 48 hrs by AnnexinV-FITC/PI staining based flow cytometry (reference value: 1.6 to 2.41%); format: functional; conditions: 1.25 µM
[5] = test system: MDA-MB-231; experiment: Induction of cell cycle arrest in human MDA-MB-231 cells assessed as accumulation of cells at G2/M phase at 2.5 uM incubated for 48 hrs by PI staining based flow cytometry (reference value: 29.42 to 32.08%); format: functional
[6] = test system: MDA-MB-231; experiment: Induction of cell cycle arrest in human MDA-MB-231 cells assessed as accumulation of cells at S phase at 10 uM incubated for 48 hrs by PI staining based flow cytometry (reference value: 12.56 to 14.76%); format: functional
[7] = test system: MDA-MB-231; experiment: Induction of apoptosis in human MDA-MB-231 cells assessed as late apoptotic cells at 5 uM incubated for 48 hrs by AnnexinV-FITC/PI staining based flow cytometry (reference value: 3.77 to 3.84%); format: functional
[8] = test system: MDA-MB-231; experiment: Induction of cell cycle arrest in human MDA-MB-231 cells assessed as accumulation of cells at G0/G1 phase at 1 uM incubated for 48 hrs by PI staining based flow cytometry (reference value: 55.36 to 55.82%); format: functional
[9] = test system: MDA-MB-231; experiment: Induction of apoptosis in human MDA-MB-231 cells assessed as late apoptotic cells at 2.5 uM incubated for 48 hrs by AnnexinV-FITC/PI staining based flow cytometry (reference value: 3.77 to 3.84%); format: functional
[10] = test system: MDA-MB-231; experiment: Induction of apoptosis in human MDA-MB-231 cells assessed as viable cells at 5 uM incubated for 48 hrs by AnnexinV-FITC/PI staining based flow cytometry (reference value: 91.22 to 92.84%); format: functional; conditions: read-out: Activity
[11] = test system: MDA-MB-231; experiment: Induction of cell cycle arrest in human MDA-MB-231 cells assessed as accumulation of cells at G0/G1 phase at 2.5 uM incubated for 48 hrs by PI staining based flow cytometry (reference value: 55.36 to 55.82%); format: functional
[12] = test system: MDA-MB-231; experiment: Inhibition of colony formation in human MDA-MB-231 cells at 0.5 to 10 uM incubated for 7 days by crystal violet staining based analysis; format: functional, cell-based; conditions: dose 0.5-10 µM, time 7.0 day
[13] = test system: MDA-MB-231; experiment: Induction of apoptosis in human MDA-MB-231 cells assessed as early apoptotic cells at 10 uM incubated for 48 hrs by AnnexinV-FITC/PI staining based flow cytometry (reference value: 1.6 to 2.41%); format: functional
[14] = test system: MDA-MB-231; experiment: Induction of apoptosis in human MDA-MB-231 cells assessed as early apoptotic cells at 2.5 uM incubated for 48 hrs by AnnexinV-FITC/PI staining based flow cytometry (reference value: 1.6 to 2.41%); format: functional
[15] = test system: MDA-MB-231; experiment: Induction of cell cycle arrest in human MDA-MB-231 cells assessed as accumulation of cells at G2/M phase at 25 uM incubated for 48 hrs by PI staining based flow cytometry (reference value: 29.42 to 32.08%); format: functional
[16] = test system: MDA-MB-231; experiment: Induction of cell cycle arrest in human MDA-MB-231 cells assessed as accumulation of cells at S phase at 25 uM incubated for 48 hrs by PI staining based flow cytometry (reference value: 12.56 to 14.76%); format: functional
[17] = test system: MDA-MB-231; experiment: Induction of cell cycle arrest in human MDA-MB-231 cells assessed as accumulation of cells at S phase at 2.5 uM incubated for 48 hrs by PI staining based flow cytometry (reference value: 12.56 to 14.76%); format: functional
[18] = test system: MDA-MB-231; experiment: Induction of apoptosis in human MDA-MB-231 cells assessed as necrotic cells at 2.5 uM incubated for 48 hrs by AnnexinV-FITC/PI staining based flow cytometry (reference value: 1.79 to 2.53%); format: functional
[19] = test system: MDA-MB-231; experiment: Induction of apoptosis in human MDA-MB-231 cells assessed as necrotic cells at […] uM incubated for 48 hrs by AnnexinV-FITC/PI staining based flow cytometry (reference value: 1.79 to 2.53%); format: functional; conditions: 1.25 µM
[20] = molecular target: Hepatocyte growth factor receptor (Homo sapiens, UniProt P08581); experiment: Inhibition of c-Met (unknown origin) using Poly(Glu:Tyr)(4:1) and ATP as substrate incubated for 45 mins by Kinase-Glo Max reagent based luminescence analysis
Sequence of Hepatocyte growth factor receptor (P08581 whole entry): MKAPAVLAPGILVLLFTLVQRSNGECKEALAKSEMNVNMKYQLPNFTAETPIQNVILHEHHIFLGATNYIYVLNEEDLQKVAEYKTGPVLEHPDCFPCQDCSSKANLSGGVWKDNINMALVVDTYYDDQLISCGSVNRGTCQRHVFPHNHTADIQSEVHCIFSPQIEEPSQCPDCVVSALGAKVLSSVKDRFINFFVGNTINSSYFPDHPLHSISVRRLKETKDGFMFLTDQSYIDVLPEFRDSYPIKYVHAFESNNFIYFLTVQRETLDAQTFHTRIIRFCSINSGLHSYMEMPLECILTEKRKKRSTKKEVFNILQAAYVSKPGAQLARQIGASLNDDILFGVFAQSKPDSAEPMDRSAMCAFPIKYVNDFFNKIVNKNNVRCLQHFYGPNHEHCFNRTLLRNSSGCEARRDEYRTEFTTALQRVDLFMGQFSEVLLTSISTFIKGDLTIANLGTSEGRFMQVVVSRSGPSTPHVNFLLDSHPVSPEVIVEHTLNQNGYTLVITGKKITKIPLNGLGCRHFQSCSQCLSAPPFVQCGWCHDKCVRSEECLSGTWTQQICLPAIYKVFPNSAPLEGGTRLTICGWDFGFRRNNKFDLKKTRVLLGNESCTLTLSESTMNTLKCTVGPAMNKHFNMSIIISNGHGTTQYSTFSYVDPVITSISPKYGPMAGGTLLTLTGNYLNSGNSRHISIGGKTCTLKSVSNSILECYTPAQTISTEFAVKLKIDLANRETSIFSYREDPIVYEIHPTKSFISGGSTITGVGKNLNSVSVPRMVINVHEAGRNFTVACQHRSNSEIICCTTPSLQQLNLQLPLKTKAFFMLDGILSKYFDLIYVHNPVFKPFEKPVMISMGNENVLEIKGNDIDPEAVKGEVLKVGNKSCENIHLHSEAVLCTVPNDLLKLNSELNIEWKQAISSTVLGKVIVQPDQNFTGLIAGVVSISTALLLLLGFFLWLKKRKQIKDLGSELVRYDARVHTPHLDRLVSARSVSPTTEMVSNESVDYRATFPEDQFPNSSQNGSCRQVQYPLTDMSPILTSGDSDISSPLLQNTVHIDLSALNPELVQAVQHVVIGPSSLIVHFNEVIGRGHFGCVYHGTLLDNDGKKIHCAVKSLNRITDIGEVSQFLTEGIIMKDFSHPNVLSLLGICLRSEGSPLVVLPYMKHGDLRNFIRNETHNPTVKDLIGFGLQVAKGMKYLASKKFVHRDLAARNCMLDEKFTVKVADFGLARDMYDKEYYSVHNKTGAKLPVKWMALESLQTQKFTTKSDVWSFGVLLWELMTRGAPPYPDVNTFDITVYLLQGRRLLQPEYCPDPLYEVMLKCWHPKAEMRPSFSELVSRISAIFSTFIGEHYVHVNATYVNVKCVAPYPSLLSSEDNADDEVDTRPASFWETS

[21] = test system: MDA-MB-231; experiment: Induction of apoptosis in human MDA-MB-231 cells assessed as necrotic cells at 5 uM incubated for 48 hrs by AnnexinV-FITC/PI staining based flow cytometry (reference value: 1.79 to 2.53%); format: functional
[22] = test system: MDA-MB-231; experiment: Induction of cell cycle arrest in human MDA-MB-231 cells assessed as accumulation of cells at G0/G1 phase at 25 uM incubated for 48 hrs by PI staining based flow cytometry (reference value: 55.36 to 55.82%); format: functional
[23] = test system: MDA-MB-231; experiment: Induction of cell cycle arrest in human MDA-MB-231 cells assessed as accumulation of cells at S phase at 1 uM incubated for 48 hrs by PI staining based flow cytometry (reference value: 12.56 to 14.76%); format: functional
[24] = test system: MDA-MB-231; experiment: Induction of apoptosis in human MDA-MB-231 cells assessed as early apoptotic cells at 5 uM incubated for 48 hrs by AnnexinV-FITC/PI staining based flow cytometry (reference value: 1.6 to 2.41%); format: functional
[25] = Cytotoxicity against human MCF-10A cells assessed as reduction in cell viability incubated for 72 hrs by MTT assay; format: toxicity, cell-based
[26] = test system: MDA-MB-231; experiment: Induction of apoptosis in human MDA-MB-231 cells assessed as necrotic cells at 10 uM incubated for 48 hrs by AnnexinV-FITC/PI staining based flow cytometry (reference value: 1.79 to 2.53%); format: functional
[27] = test system: MDA-MB-231; experiment: Induction of apoptosis in human MDA-MB-231 cells assessed as late apoptotic cells at […] uM incubated for 48 hrs by AnnexinV-FITC/PI staining based flow cytometry (reference value: 3.77 to 3.84%); format: functional; conditions: 1.25 µM
[28] = test system: MDA-MB-231; experiment: Induction of apoptosis in human MDA-MB-231 cells assessed as late apoptotic cells at 10 uM incubated for 48 hrs by AnnexinV-FITC/PI staining based flow cytometry (reference value: 3.77 to 3.84%); format: functional
[29] = test system: MDA-MB-231; experiment: Induction of cell cycle arrest in human MDA-MB-231 cells assessed as accumulation of cells at G2/M phase at 10 uM incubated for 48 hrs by PI staining based flow cytometry (reference value: 29.42 to 32.08%); format: functional
[30] = test system: MDA-MB-231; experiment: Induction of cell cycle arrest in human MDA-MB-231 cells assessed as accumulation of cells at G0/G1 phase at 10 uM incubated for 48 hrs by PI staining based flow cytometry (reference value: 55.36 to 55.82%); format: functional
[31] = test system: MDA-MB-231; experiment: Induction of apoptosis in human MDA-MB-231 cells assessed as viable cells at 2.5 uM incubated for 48 hrs by AnnexinV-FITC/PI staining based flow cytometry (reference value: 91.22 to 92.84%); format: functional; conditions: read-out: Activity
[32] = test system: MDA-MB-231; experiment: Induction of apoptosis in human MDA-MB-231 cells assessed as viable cells at […] uM incubated for 48 hrs by AnnexinV-FITC/PI staining based flow cytometry (reference value: 91.22 to 92.84%); format: functional; conditions: read-out: Activity
[33] = test system: MDA-MB-231; experiment: Induction of apoptosis in human MDA-MB-231 cells assessed as viable cells at 10 uM incubated for 48 hrs by AnnexinV-FITC/PI staining based flow cytometry (reference value: 91.22 to 92.84%); format: functional; conditions: read-out: Activity
[34] = test system: MDA-MB-231; experiment: Induction of cell cycle arrest in human MDA-MB-231 cells assessed as accumulation of cells at G2/M phase at 1 uM incubated for 48 hrs by PI staining based flow cytometry (reference value: 29.42 to 32.08%); format: functional

## CC(c1ccc2ncccc2c1)n1nnc2ncc(N3CCN(CC(=O)Nc4ccccc4N)CC3)nc21 (configuration not stated)
[1]
  IC50: 14.2 µM
[2]
  IC50: 27.2 µM
[3]
  IC50: 26.6 µM

## CC(c1ccc2ncccc2c1)n1nnc2ncc(N3CCN(CC(=O)Nc4ccc(F)cc4N)CC3)nc21 (configuration not stated)
[1]
  IC50: 12.2 µM
[2]
  IC50: 22.1 µM
[3]
  IC50: 18.4 µM

## CC(c1ccc2ncccc2c1)n1nnc2ncc(N3CCN(CCC(=O)Nc4ccc(F)cc4N)CC3)nc21 (configuration not stated)
[1]
  IC50: 9.15 µM
[2]
  IC50: 27.6 µM
[3]
  IC50: 22.7 µM

## C[C@@H](Oc1cc(-c2cnn(C3CCNCC3)c2)cnc1N)c1c(Cl)ccc(F)c1Cl [CRIZOTINIB]
[1]
  IC50: 2.62 µM
[2]
  IC50: 4.69 µM
[3]
  IC50: 4.9 µM

## CC(c1ccc2ncccc2c1)n1nnc2ncc(N3CCN(CCCC(=O)Nc4ccccc4N)CC3)nc21 (configuration not stated)
[1]
  IC50: 18.9 µM
[2]
  IC50: 22.9 µM
[3]
  IC50: 22.8 µM

## CC(c1ccc2ncccc2c1)n1nnc2ncc(N3CCN(Cc4ccc(/C=C/C(=O)Nc5ccc(F)cc5N)cc4)CC3)nc21 (configuration not stated)
[4]
  Activity: 2%
[5]
  Activity: 18.03%
[1]
  IC50: 1.25 µM
[6]
  Activity: 12.11%
[2]
  IC50: 3.88 µM
[7]
  Activity: 8.25%
[3]
  IC50: 1.63 µM
[8]
  Activity: 68.63%
[9]
  Activity: 7.16%
[10]
  viability at 5 µM: 87.1%
[11]
  Activity: 71%
[12]
  inhibition: Dose-Dependent Effect
[13]
  Activity: 3.12%
[14]
  Activity: 3.22%
[15]
  Activity: 13.48%
[16]
  Activity: 12.08%
[17]
  Activity: 9.97%
[18]
  Activity: 2.21%
[19]
  Activity: 4.05%
[20]
  IC50: 0.0549 µM
[21]
  Activity: 1.98%
[22]
  Activity: 74.44%
[23]
  Activity: 10.25%
[24]
  Activity: 2.65%
[25]
  IC50 at 72 h: > 25 µM
[26]
  Activity: 2.15%
[27]
  Activity: 5.18%
[28]
  Activity: 9.5%
[29]
  Activity: 15.22%
[30]
  Activity: 72.67%
[31]
  viability at 2.5 µM: 87.4%
[32]
  viability at 1.25 µM: 88.8%
[33]
  viability at 10 µM: 85.2%
[34]
  Activity: 21.12%

## CC(c1ccc2ncccc2c1)n1nnc2ncc(N3CCN(CCC(=O)Nc4ccccc4N)CC3)nc21 (configuration not stated)
[1]
  IC50: 21.9 µM
[2]
  IC50: 30.8 µM
[3]
  IC50: 30.4 µM
